In patent US20180353507A1, “METHODS OF PREVENTING OR TREATING HYPOGLYCEMIA BY ADMINISTERING A GPR119 AGONIST” (Merck Sharp & Dohme Corp., priority 2015, published 2018):

How the values were obtained:
male Wistar Han rats = test: Hyperinsulinemic-hypoglycemia clamp study; assay type: in vivo; details: for change of systemic blood glucose level during clamp / glucose infusion rate needed to maintain blood glucose at 50 mg/dl: 60 minutes prior to clamp; for change of systemic blood glucose level during clamp: FIG. 6A; for glucose infusion rate needed to maintain blood glucose at 50 mg/dl: FIG. 6B; for systemic epinephrine release at hypoglycemic status: FIG. 7C; for c-peptide release: FIG. 7D
Description: FIG. 5 illustrates a scheme and time-course depiction of the hyperinsulinemic-hypoglycemia clamp study performed in rats as described in EXAMPLE 4. Rats were recovered from surgery stress and pre-treated with vehicle, GLIBENCLAMIDE (5 mpk), or GPR119 agonist Compound B (10 mpk) 60 minutes prior to initiation of the clamp. From time zero, rats received an insulin bolus injection initially, then were simultaneously infused with insulin at a steady rate and glucose at an adjusted rate based on the plasma glucose level measured at every 10 minutes. Vertical bars indicate the time points when the blood specimens were collected for measurements of insulin, C-peptide, glucagon, and epinephrine/norepinephrine (0 min, 30 min, 60 min, 90 min and 120 min).
A hyperinsulinemic-hypoglycemia clamp study was performed in male Wistar Han rats as shown in FIG. 5 and described below to explore the potential roles of GPR119 agonists in regulating glucagon secretion at the hypoglycemic status. Three groups were studied, those treated with: (1) vehicle, (2) GPR119 agonist, Compound B, C, F, H, I, M and V (see Table 1 and Table 2), at 10, 30, 100, 100, 100, 30 and 30 mpk, respectively, or (3) GLIBENCLAMIDE, a sulfonylurea insulin secretagogue known to cause hypoglycemia, at 5 mpk. Blood samples (100-150 μl) were collected for insulin, C-peptide, glucagon, and epinephrine/norepinephrine measurements. Terminal bleeding was analyzed for PK measurement.
FIGS. 5, 6A-B, 7A-D and 8A-L illustrate the hyperinsulinemic-hypoglycemia clamp study of EXAMPLE 4. FIG. 5 is a scheme and time-course depiction of the hyperinsulinemic-hypoglycemia clamp study performed in rats. Vertical bars indicate the time points when the rats were infused with compound, or insulin/glucose, or blood specimens were collected for measurements of insulin, C-peptide, glucagon, and epinephrine/norepinephrine. After recovered from surgery stress, rats were pre-treated with vehicle, GLIBENCLAMIDE (5 mpk), or GPR119 agonist Compound B (10 mpk) 60 minutes prior to initiation of the clamp. From time zero, rats received an initial insulin bolus injection followed by simultaneous infusion of insulin at a steady rate and glucose at an adjusted rate. Rat plasma glucose levels (FIG. 6A) were monitored periodically, and the glucose infusion rate (FIG. 6B) was adjusted so that the blood glucose level would be maintained at 50 mg/dl.

pancreas = test: In situ rat pancreatic perfusion, insulin and glucagon release; set-up: species or system Wistar Han rats; details: 500 nM compound, vs vehicle
Description: Male Wistar Han rats were purchased from Charles River Laboratories Inc. at 6 weeks of age and housed 2 per cage for two weeks with food and water ad libitum. In Situ Pancreatic perfusions were performed when the rats were eight weeks old. All procedures were performed in accordance with relevant guidelines and regulations. Food was removed 4-5 hours prior to surgery. For each surgery, the rat was fully sedated with 100 mg/kg intraperitoneal (i.p.) Na-pentobarbital (NEMBUTAL) anesthesia. The depth of anesthesia was determined by a “paw pinch” test. Surgery was not initiated until the rat was fully sedated. If necessary an additional 50 mg/kg i.p. dose (50% of original) of NEMBUTAL was given. The peritoneal cavity was opened and coeliac artery was ligated dorsally. […] cannula was inserted into coeliac artery for perfusant afflux. The left gastric artery was ligated at the esophagus-stomach junction. The hepatic portal vein was ligated dorsally and cannulated ventrally (25G cannula; towards liver) for perfusant efflux. Immediately following the surgery, the rat was placed into the perfusion chamber and perfused at 3 ml/minute with modified KREBS-RINGER buffers [see. […] et al. 2012 Reproductive biology and endocrinology 10:110]. The buffers and perfusion chamber were kept warm at 37° C. and saturated with an O^2/CO^2 gases mixture. The buffers were 2 mM or 16 mM glucose and contained either vehicle (0.1%/DMSO) or Compound A (see Table 1) or 30 mM L-Arginine. The perfusant was collected by automated fraction collector at one sample per minute rate with about 90% rate of buffer recovery. Samples were frozen at -70° C. and later analyzed for total insulin and glucagon content. For the buffers: First the following mixture was prepared in water containing 10% NaCl (1.19M), 5% KCL (94 mM), 10% […] (250 mM), 5% CaCl2-2H2O (50 mM), 5% MgSO4-7H2O (24 mM), and 5% KH2PO4 (24 mM). The buffer was then oxygenated for 20 minutes, and 3% dextran and 0.2% BSA (insulin free) were added. Glucose was added from 1M stock solution as needed. FIGS. 4A-B illustrate a pancreatic perfusion assay in Wistar Han rats, and insulin (left panel) and glucagon (right panel) release measurements. As shown (lines with open circles), a basal level of insulin and a fair amount of glucagon were secreted from pancreas when perfused with low glucose (6 mM glucose). […] Application of GPR119 agonist (500 nM Compound A, lines with solid circles) enhanced both basal and glucose-stimulated pancreas insulin secretion (left panel).

[1] = 100 mpk, hypoglycemic status (50 mg/dL), FIGS. 8A-L
[2] = 30 mpk, hypoglycemic status (50 mg/dL), FIGS. 8A-L
[3] = high glucose (12 mM glucose) perfusion
[4] = low glucose (6 mM glucose) perfusion

With `CCc1cnc(N2CCC(c3nc(COc4ccc(-n5cnnn5)cc4)cs3)CC2)nc1` [Compound H] the “blood glucagon secretion at hypoglycemic status” value (“blood glucagon secretion” below) (male Wistar Han rats; [1]) was “significantly elevated”.
`CS(=O)(=O)c1ccc(OCC[C@@H]2C[C@@H]2C2CCN(c3ncc(Cl)cn3)CC2)nc1` [Compound C] was tested, and the “blood glucagon secretion” value (male Wistar Han rats; [2]) was “significantly elevated”.
For `CC1(OC(=O)C2CC3COCC(C2)C3Oc2ncnc(Nc3ccc(C#N)cc3Cl)c2F)CC1` (centres unmarked) [Compound A], the “glucose-repressed glucagon secretion from pancreas” value (pancreas; [3]) was “did not affect”, the “glucose-stimulated pancreas insulin secretion” value (pancreas; [3]) was “enhanced” and the “basal glucagon release from pancreas” value (pancreas; [4]) was “elevated basal glucagon release”. The “basal pancreas insulin secretion” value (pancreas; [4]) was “enhanced”.
For `COCc1cnc(N2CCC([C@H]3C[C@H]3CCOc3cc(F)c(CC(=O)N4CCC4)c(F)c3)CC2)nc1` [Compound B], the “change of systemic blood glucose level during clamp” value (male Wistar Han rats; 10 mpk, compared with vehicle) was “comparable and slower”, the “glucose infusion rate needed to maintain blood glucose at 50 mg/dl” value (male Wistar Han rats; 10 mpk, compared with vehicle) was “comparable and slower” and the “systemic epinephrine release at hypoglycemic status” value (male Wistar Han rats; 10 mpk) was “only slightly altered”. The c-peptide release (male Wistar Han rats; 10 mpk) was “indistinguishable from vehicle control” and the “blood glucagon secretion” value (male Wistar Han rats; 10 mpk, blood glucose dropping to 50 mg/dL, 15-60 minutes, FIGS. 7A-B) was “significantly elevated”.
In the case of `C[S+]([O-])c1ccc(OCCCC2CCN(C(=O)OC(C)(C)C)CC2)cc1F` (centres unmarked) [Compound I], the “blood glucagon secretion” value (male Wistar Han rats; [1]) was “significantly elevated”.
In the case of `CCc1noc(N2CCC([C@H]3C[C@H]3CCOc3ccc(S(C)(=O)=O)cn3)CC2)n1` [Compound V], the “blood glucagon secretion” value (male Wistar Han rats; [2]) was “significantly elevated”.
`COCc1noc(N2CCC([C@H]3C[C@H]3CCOc3ccc(S(C)(=O)=O)c(F)c3)CC2)n1` [Compound M] was tested, and the “blood glucagon secretion” value (male Wistar Han rats; [2]) was “significantly elevated”.
With `COc1c(Nc2ccc(S(C)(=O)=O)nc2C)ncnc1OC1CCN(C(=O)OC(C)C)CC1` [Compound F] the “blood glucagon secretion” value (male Wistar Han rats; [1]) was “significantly elevated”.
With `COc1ccc(Cl)cc1C(=O)NCCc1ccc(S(=O)(=O)NC(=O)NC2CCCCC2)cc1` [GLIBENCLAMIDE, glibenclamide, reference compound] the “change of systemic blood glucose level during clamp” value (male Wistar Han rats; 5 mpk) was “rapidly decreases blood glucose level”, the “glucose infusion rate needed to maintain blood glucose at 50 mg/dl” value (male Wistar Han rats; 5 mpk) was “requires much faster glucose infusion rate” and the “systemic epinephrine release at hypoglycemic status” value (male Wistar Han rats; 5 mpk) was “inhibited this elevation”. The c-peptide release (male Wistar Han rats; 5 mpk) was “promotes c-peptide release” and the “blood glucagon secretion” value (male Wistar Han rats; 5 mpk, blood glucose dropping to 50 mg/dL, 15-60 minutes, FIGS. 7A-B) was “suppressed glucagon secretion”.
